Results on three compounds are retold here after PMC8948939 (Pharmaceutics, 2022).

Data set [1] deals with T1, CYP2C9 (Homo sapiens, UniProt P11712). Kind of data set: in vitro. The following applies: microsomes, pH 7.5. How it is done: (§1) Supplementary Section S1. Marker reactions for CYP2C19, CYP2C9 and CYP3A4 […]
(§2) for CYP3A4 [1,2] were used to determine (i) intersystem extrapolation factors (ISEF), (ii) […]
(§3) (i) Experiments for the determination of Michaelis-Menten kinetics in HLM were performed at protein concentrations of 0.02, 0.04 and 0.05 mg/mL for the marker reactions of CYP2C19, CYP2C9 and CYP3A4 (n = 3 each), respectively. Two samples were taken from each incubation after 15 and 25 min for investigations on CYP2C19, after 5 and 10 min for CYP2C9 and after 7 and 12 min for CYP3A4, respectively. […]
(§4) were applied as substrate concentrations. […]

For data set [2], the target named is CYP2C9 in human liver microsomes (HLM) (Homo sapiens, UniProt P11712). Kind of data set: in vitro. As to conditions: pH 7.5. How it is done: as §1, §2, §3, §4
The target in data set [3] is T1, CYP2C9. The following applies: recombinant enzyme, pH 7.5. As for the experimental part:
as §1, §2, §3
(§5) were applied as substrate concentrations.
(§6) For investigations in rhCYP concentrations of 2.5 pmol/mL rhCYP2C19 (n = 3), […]
(§7) respectively. […]

Data set [4] has as its target T2, CYP3A4 (Homo sapiens, UniProt P08684). Briefly: Michaelis-Menten kinetics of midazolam 1-hydroxylation by rhCYP3A4. It counts as in vitro ADME. Also noted: purchased Corning Inc.
Text: (§8) Towards the Elucidation of the Pharmacokinetics of
(§9) Josefine Schulz 1, Antonia Thomas 1, Ayatallah Saleh 1,2, Gerd Mikus 1,3, Charlotte Kloft 1,† and Robin Michelet 1,*,† 1 Department of Clinical Pharmacy & Biochemistry, Institute of Pharmacy, Freie Universitaet Berlin, Kelchstraße 31, 12169 Berlin, Germany
(§10) 2 Graduate Research Training Program PharMetrX, 12169 Berlin/Potsdam, Germany 3 Department of Clinical Pharmacology and Pharmacoepidemiology, University Hospital Heidelberg, Im Neuenheimer Feld 410, 69120 Heidelberg, Germany
(§11) * Correspondence: robin.michelet@fu-berlin.de; Tel.: +49-30-838-50659
(§12) † These authors contributed equally to this work
as §1, §2, §3, §5, §6
Target sequence in this assay (P08684 whole entry): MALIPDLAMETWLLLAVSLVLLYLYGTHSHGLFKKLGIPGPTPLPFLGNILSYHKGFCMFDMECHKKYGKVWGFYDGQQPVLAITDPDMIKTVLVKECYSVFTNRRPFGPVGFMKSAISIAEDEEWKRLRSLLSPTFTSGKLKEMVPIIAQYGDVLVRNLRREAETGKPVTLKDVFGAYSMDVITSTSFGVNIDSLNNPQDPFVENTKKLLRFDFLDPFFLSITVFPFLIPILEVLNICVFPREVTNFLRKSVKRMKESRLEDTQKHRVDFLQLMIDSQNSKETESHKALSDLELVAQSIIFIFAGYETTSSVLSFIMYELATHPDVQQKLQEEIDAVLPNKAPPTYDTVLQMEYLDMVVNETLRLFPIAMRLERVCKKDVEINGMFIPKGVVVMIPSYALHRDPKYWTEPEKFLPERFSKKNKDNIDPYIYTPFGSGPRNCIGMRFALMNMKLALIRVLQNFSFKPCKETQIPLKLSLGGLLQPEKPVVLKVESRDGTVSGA
respectively. Sampling time points were identical to those in HLM as were substrate […]
concentration of 0.2 mg/mL for 15 and 25 min (n = 2). Each probe substrate was incubated in the presence of each inhibitor. […]
(§13) were performed at concentrations of 0.2, 0.08 and 0.05 mg/mL HLM for CYP2C19, CYP2C9 and CYP3A4, respectively. IC50 and IC50 shift assays were performed at substrate […]
Reaction times were identical to those described […]

The target in data set [5] is T3, CYP3A4 in human liver microsomes (HLM) (Homo sapiens, UniProt P08684).
T3 construct: tissue Corning Inc; host or cells: pooled human liver microsomes (150 donors)
Briefly: Michaelis-Menten kinetics of midazolam 1-hydroxylation (CYP3A4 marker reaction) in HLM. It counts as in vitro ADME. The following applies: midazolam 1-hydroxylation; HLM.
Text: as §8, §9, §10, §11, §12, §1, §2, §3, §5, §6, §7

For data set [6], the target named is T2, CYP3A4. The data set is described as above. It counts as in vitro ADME. On the set-up: tissue Corning Inc; host or cells: pooled human liver microsomes (150 donors). As to conditions: human, human liver microsomes.
Text: as §8, §9, §10, §11, §12, §1, §2, §3, §5, §6, §7
Target sequence in this assay (P08684 2-503 limits assumed): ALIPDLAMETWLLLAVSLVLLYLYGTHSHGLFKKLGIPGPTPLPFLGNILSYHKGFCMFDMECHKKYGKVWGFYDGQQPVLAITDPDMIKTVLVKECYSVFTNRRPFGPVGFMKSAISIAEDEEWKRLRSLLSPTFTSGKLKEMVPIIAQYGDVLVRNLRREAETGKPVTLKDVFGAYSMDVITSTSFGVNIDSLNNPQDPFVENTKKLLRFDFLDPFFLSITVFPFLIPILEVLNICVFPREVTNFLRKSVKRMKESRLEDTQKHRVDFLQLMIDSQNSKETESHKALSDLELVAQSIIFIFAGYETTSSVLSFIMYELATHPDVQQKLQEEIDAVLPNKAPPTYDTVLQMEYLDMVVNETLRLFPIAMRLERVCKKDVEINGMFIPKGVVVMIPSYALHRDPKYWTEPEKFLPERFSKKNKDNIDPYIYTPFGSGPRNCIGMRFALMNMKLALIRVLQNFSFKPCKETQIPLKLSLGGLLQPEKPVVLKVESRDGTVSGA
(In general: Liver microsomes are a subcellular fraction often used to study metabolism.)

For data set [7], the target named is T4, CYP2C19 (Homo sapiens, UniProt P33261). Kind of data set: Type of reversible inhibition and Ki on CYP2C19 (S-mephenytoin 4-hydroxylation) in HLM. It counts as in vitro ADME. On the set-up: tissue Corning Inc; host or cells: pooled human liver microsomes (150 donors). How it is done: (§14) Reaction velocities were investigated in function of the substrate ([S]) and inhibitor ([I]) concentration to determine KM, Vmax and Ki of the reaction. The obtained data were used to fit the three main models of reversible inhibition, i.e., competitive (Equation (10)), noncompetitive (Equation (11)) and uncompetitive (Equation (12)) using the “nls” function in R. The type of inhibition was determined according to the best model fit assessed with Akaike’s information criteria (AIC). […] (10) V=Vmax/1+KM/S1+I/Ki (11) V=Vmax/1+KM/S1+I/Ki (12) V=Vmax/1+KM/S+I/Ki […]
as §1, §2, §3, §4
(§15) Each probe substrate was incubated in the presence of each inhibitor. […]
as §13
(§16) Reaction times were identical to those described

For data set [8], the target named is T4, CYP2C19. Kind of data set: IC50 and IC50 shift on CYP2C19 marker reaction (S-mephenytoin 4-hydroxylation) in HLM. It counts as in vitro ADME. Also noted: tissue Corning Inc; host or cells: pooled human liver microsomes (150 donors). How it is done:
(§17) Remaining activity (A, %) was calculated as the ratio of reaction velocities in the inhibited and non-inhibited incubations. IC50 and the steepness of the inhibition curve (H) were estimated by fitting the four-parameter inhibition model to the experimental data (Equation (9)). Maximum (Amax) and baseline activity (A0) were fixed to 100 and 0, respectively. […] (9) A,%=A0+Amax−A0/1+logCInhib/logIC50^H=100/1+logCInhib/logIC50^H […]
as §1, §2, §15, §13, §16

Data set [9] deals with T1, CYP2C9. Kind of data set: Type of reversible inhibition and Ki on CYP2C9 (diclofenac 4-hydroxylation) in HLM. The format is in vitro ADME. Also noted: tissue Corning Inc; host or cells: pooled human liver microsomes (150 donors). As for the experimental part:
as §14, §1, §2, §3, §4, §15, §13, §16

For a further data set, the system named is HLM, HIM and rhCYP. Kind of data set: Pre-investigations of metabolite formation from VRC in HLM, HIM and rhCYP. It counts as in vitro ADME, human. An excerpt:
As an essential prerequisite, the linearity of metabolite formation with regard to reaction time and enzyme concentration, as well as the absence of substrate depletion (<10%), were investigated.

The target of data set [10] is T2, CYP3A4. Briefly: IC50 and IC50 shift on CYP3A4 marker reaction (midazolam 1-hydroxylation) in HLM. It counts as in vitro ADME. Also noted: tissue Corning Inc; host or cells: pooled human liver microsomes (150 donors). As to conditions: for IC50 shift: human, human liver microsomes, pH 7.5, probe midazolam 1-hydroxylation (4.60 µM midazolam). As for the experimental part:
as §17, §1, §2
Target sequence in this assay (P08684 2-503 limits assumed): as above
Two samples were taken […]
from each incubation after 15 and 25 min for investigations on CYP2C19, after 5 and 10 min for CYP2C9 and after 7 and 12 min for CYP3A4, respectively. […]
CYP2C9 and CYP3A4, respectively. IC50 and IC50 shift assays were performed at substrate […]
as §16

For data set [11] the following is noted: cited from earlier work.
Data set [12] has as its target T1, CYP2C9. Kind of data set: IC50 and IC50 shift on CYP2C9 marker reaction (diclofenac 4-hydroxylation) in HLM. The format is in vitro ADME. On the set-up: tissue Corning Inc; host or cells: pooled human liver microsomes (150 donors). How it is done: as §17
Supplementary Section S1. […]
Two samples were taken
from each incubation after 15 and 25 min for investigations on CYP2C19, after 5 and
10 min for CYP2C9 and after 7 and 12 min for CYP3A4, respectively. […]
CYP2C9 and CYP3A4, respectively. IC50 and IC50 shift assays were performed at substrate
as §16

Data set [13] has as its system human liver microsomes (HLM). Briefly: Metabolic stability of voriconazole N-oxide and hydroxyvoriconazole in HLM. It counts as in vitro ADME. The following applies: HLM 0.2 mg/mL. How it is done: An incubation without HLM served as a control (n = 1).
Data set [14] deals with T2, CYP3A4. Kind of data set: Type of reversible inhibition and Ki on CYP3A4 (midazolam 1-hydroxylation) in HLM. It counts as in vitro ADME. On the set-up: tissue Corning Inc; host or cells: pooled human liver microsomes (150 donors). As to conditions: CYP3A4. How it is done:
as §14, §1, §2, §3, §4, §15, §13, §16
Target sequence in this assay (P08684 2-503 limits assumed): as above

The mark [15] stands for this setting: midazolam 1-hydroxylation, rhCYP3A4.
The mark [16] stands for this setting: 30 min pre-incubation in the absence of NADPH.
Where [17] appears, read: 30 min pre-incubation in the absence of NADPH, read-out: IC50 NADPH (−) (95% Confidence Interval).
Where [18] appears, read: 30 min pre-incubation in the presence of NADPH.
Setting [19] is: 30 min pre-incubation in the presence of NADPH, read-out: IC50 NADPH (+) (95% Confidence Interval).

SMILES strings stand for the structures. Read-outs that look alike come from different tables or passages of the source. A value given as a limit tells only on which side of the number the result lay.

T4 sequence (P33261 whole entry): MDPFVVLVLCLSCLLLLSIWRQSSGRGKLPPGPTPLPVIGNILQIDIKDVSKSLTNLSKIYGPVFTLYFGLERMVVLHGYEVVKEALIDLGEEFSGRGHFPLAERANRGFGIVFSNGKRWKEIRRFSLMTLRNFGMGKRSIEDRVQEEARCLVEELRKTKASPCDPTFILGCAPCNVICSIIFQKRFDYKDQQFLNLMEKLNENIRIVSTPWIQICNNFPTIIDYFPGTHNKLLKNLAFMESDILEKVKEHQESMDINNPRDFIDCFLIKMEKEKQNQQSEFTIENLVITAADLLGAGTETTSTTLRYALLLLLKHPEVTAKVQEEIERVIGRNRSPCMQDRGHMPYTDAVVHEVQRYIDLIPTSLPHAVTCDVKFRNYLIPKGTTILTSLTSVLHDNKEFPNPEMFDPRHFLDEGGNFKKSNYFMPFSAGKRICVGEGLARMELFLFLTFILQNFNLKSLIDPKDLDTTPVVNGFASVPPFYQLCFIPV
T1 sequence (P11712 whole entry): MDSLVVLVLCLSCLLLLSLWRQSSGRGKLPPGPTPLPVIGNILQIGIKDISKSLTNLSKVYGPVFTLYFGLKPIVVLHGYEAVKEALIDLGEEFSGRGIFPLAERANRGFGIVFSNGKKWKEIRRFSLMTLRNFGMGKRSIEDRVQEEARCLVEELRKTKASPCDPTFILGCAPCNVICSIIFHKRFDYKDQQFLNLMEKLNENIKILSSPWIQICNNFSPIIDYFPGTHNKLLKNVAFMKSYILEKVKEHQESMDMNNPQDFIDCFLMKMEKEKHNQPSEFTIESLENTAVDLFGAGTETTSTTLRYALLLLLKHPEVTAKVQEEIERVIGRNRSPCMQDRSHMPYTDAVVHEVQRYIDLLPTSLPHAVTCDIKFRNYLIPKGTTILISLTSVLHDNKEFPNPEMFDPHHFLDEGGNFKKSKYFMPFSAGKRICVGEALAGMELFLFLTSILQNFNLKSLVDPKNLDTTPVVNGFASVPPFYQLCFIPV
Chain of CYP2C9 in human liver microsomes (HLM) (P11712 whole entry): as above
T3 sequence (P08684 2-503 limits assumed): as the sequence (P08684 2-503 limits assumed) above

`O=C(O)Cc1ccccc1Nc1c(Cl)cccc1Cl` [Diclofenac, diclofenac] displayed a microsomal CLint at CYP2C9 [1] of 408 µL/min/mg. The “Vmax,HLM (95% CI)” value in [2] was determined as 1693 pmol/min/mg. Moreover, at CYP2C9 [3], the “CLint, rhCYP” value is 5.89 µL/min/pmol.

In the case of `Cc1ncc2n1-c1ccc(Cl)cc1C(c1ccccc1F)=NC2` [Midazolam, midazolam], the Km at CYP3A4 [4] (human, recombinant human CYP3A4 (rhCYP3A4)) worked out at 1.96 µM; on CYP3A4 [6], 4.45 µM. For the same compound, the “CLint, rhCYP” value at CYP3A4 [4] (setting [15]) turned out to be 0.850 µL/min/pmol. The “Vmax,rhCYP (95% CI)” value on CYP3A4 [4] (setting [15]) was 1.67 pmol/min∙pmol. Further, the “Vmax,HLM (95% CI)” value in [5] worked out at 559 pmol/min/mg. Also, the microsomal CLint at CYP3A4 [6] (pH 7.5, midazolam 1-hydroxylation, HLM) was 126 µL/min/mg.

As for `C[C@@H](c1ncnc(O)c1F)[C@](O)(Cn1cncn1)c1ccc(F)cc1F` [OH–VRC, hydroxyvoriconazole], the “Type of Reversible Inhibition” value on CYP2C19 [7] (CYP2C19, best model fit by AIC) is “competitive”; on CYP2C9 [9] (CYP2C9, best model fit by AIC), “competitive”; at CYP3A4 [14] (best model fit by AIC), “noncompetitive”. In addition, the “inhibitory effect on CYP2C19 relative to VRC (fold lower, from Ki)” value against CYP2C19 [7] (compared to VRC) was found to be 6.1 fold. Further, the Ki at CYP2C19 [7] (read-out: Ki (95% CI)) is 11.6 µM; at CYP2C9 [9] (read-out: Ki (95% CI)) it was 2.8 µM; at CYP3A4 [14] (midazolam 1-hydroxylation, HLM, read-out: Ki (95% CI)), 2.53 µM. The “IC50 Shift NADPH (−)” value on CYP2C19 [8] (setting [16]) was found to be 1.17; at CYP3A4 [10] (setting [16]) it was 1.76. The IC50 on CYP2C19 [8] (setting [17]) was greater than 34.2 µM; on CYP2C19 [8] (setting [19]), 33.6 µM; at CYP2C19 [8] (without pre-incubation, […] S-mephenytoin, HLM, NO and OH–VRC estimates exceed applied concentrations (max 34.2 µM), read-out: IC50 (95% Confidence Interval)) it was greater than 34.2 µM; on CYP3A4 [10] (setting [17]) it was 0.579 µM; at CYP3A4 [10] (setting [19]), 1.57 µM; at CYP3A4 [10] (without pre-incubation, 4.60 µM midazolam, HLM, read-out: IC50 (95% Confidence Interval)) it was 1.02 µM. Also, the IC50 amounted to 3.68 µM at CYP2C9 [12] (setting [17]); 3.64 µM on CYP2C9 [12] (setting [19]); 3.67 µM at CYP2C9 [12] (without pre-incubation, 4.73 µM diclofenac, HLM, read-out: IC50 (95% Confidence Interval)). In addition, at CYP2C19 [8] (setting [18]), the “IC50 Shift NADPH (+)” value stood at 1.24. The “time dependence of inhibition” value at CYP2C19 [8] (IC50 shift assay), on CYP3A4 [10] (IC50 shift assay) and on CYP2C9 [12] (IC50 shift assay) was “Time-independent inhibition” each time. The “OH–VRC formation from VRC” value with HLM, HIM and rhCYP was “not observed”. The IC50 shift at CYP3A4 [10] (setting [16]) is greater than 1.5; on CYP3A4 [10] (setting [18]), 0.65; on CYP2C9 [12] (human, human liver microsomes, pH 7.5, probe diclofenac 4-hydroxylation (4.73 µM diclofenac), 30 min pre-incubation in the absence of NADPH) it was 0.997. The “plasma concentrations, fold lower than those of NO” value in data set [11] is “up to 30 fold”. Further, the IC50 shift at 30 min on CYP2C9 [12] (human, human liver microsomes, pH 7.5, probe diclofenac (4-hydroxylation), 4.73 µM, 30 min pre-incubation in the presence of NADPH) was 1.01. Besides, the “depletion over time when incubated directly with HLM” value in data set [13] (5-60 min, 0.137 and 1.10 µM) is “no depletion”. Further, the “% compared to a control incubation without HLM after 60 min” value in data set [13] (high concentration (1.10 µM), single replicates) amounted to 94.7%.

What is called microsomal CLint is the rate of metabolic loss divided by the concentration. Read a high microsomal CLint as faster metabolism. A word on the Km: it is the substrate concentration at which the rate is half of its maximum. The Ki is a dissociation constant, usually derived from enzyme kinetics or from competition with a known ligand. A word on the IC50: it is the point on the concentration scale where inhibition reaches its midpoint.
